Holding throughout (assay type): cell-based
Test [1] has as its system human melanoma cell line BLM. In words: Spheroid invasion assay (migrastatic activity). To be noted: 24 h; for rel. spheroid area: 10 µM, BLM spheroids in collagen, DMSO control 1.02. The method, then:
Compounds 17, 20, and 22–30 were screened for their migrastatic activity using a spheroid invasion assay with the human melanoma cell line BLM.[46] Spheroids were formed and subsequently treated with cytochalasin analogues at a concentration of 10 μM for 24 h. CytB (1) and CytD (2) served as reference compounds for comparison. There was no significant increase in cell migration observed for any of the compounds tested. […] However, the effect was less profound than that of the reference compounds 1 and 2.
The spheroid invasion assay was performed following a previously published protocol.[63] Briefly, BLM cells were grown as spheroids using 3D Petri Dish (Microtissues). After 2 days of spheroid formation, 1.5 mg mL^−1 collagen solution (rat tail, collagen type I) was prepared (1.5 mg mL^−1 rat-tail collagen, 1× DMEM, 1% (v/v) FBS) and added at the bottom of a 96-well plate. Spheroids were embedded into the collagen (one spheroid per well) and covered with another layer of the gel. Collagen was polymerized at 37 °C and subsequently overlaid with a cultivation medium. Images of spheroids were taken with Leica TCS SP2 microscope (5×/0.15 dry objective; LAS X Life Science Microscope software) immediately after their seeding into collagen and again after 24 h. The area of the spheroids at 0 and 24 h was measured using FiJi (Rasband, W.S., ImageJ, NIH, Bethesda, MD, USA). Cellular invasiveness was determined as an increase in spheroid area within 24 h. Three independent experiments were conducted with at least 8 spheroids analysed in each experiment. Statistical analysis was performed in GraphPad using one-way ANOVA. For numeric data and representative images from this assay, see ESI, ^† Table S1 and Fig. S1.
Table S1: Spheroid invasion assay with BLM cell line at 10 µM concentration, 24 h.
Figure S1: Representative images of BLM cell spheroid invasion assay with or without
inhibitor. Images were taken at 0 h and 24 h. using a Leica TCS SP2 microscope (5x/0.15
dry objective). DMSO (first column) was used as a control. Scale bar 500 µm.

Test [2] deals with human melanoma cells (BLM). The test can be described thus: WST-1 viability assay, BLM cells. Particulars: for IC50: Homo sapiens, 72 h treatment, WST-1 assay, 2D culture, 0–50 μM; for selectivity index (SI): MRC-5 versus BLM, 72 h, WST-1. The method, then: (§1) In addition, the cytotoxic activity of compounds 17, 20, and 22–30 was assessed by the WST-1 viability assay using BLM (human melanoma) and MRC-5 (noncancerous human fibroblasts) cells growing in a monolayer (2D cultures, Table 2) after 72 h of treatment.
(§2) Human cells from melanoma (BLM) and human lung fibroblasts (MRC-5, Merck, USA) were used to evaluate in vitro cytotoxicity of the prepared compounds. The cells were maintained at the exponential phase of growth (passaging done by trypsin–EDTA solution) in DMEM and MEM, for BLM and MRC-5, respectively, with stable L-glutamine and supplemented with 10% fetal bovine serum (Thermo Fisher Scientific, USA). The cells were kept in an incubator at 37 °C, 5% CO2 in the atmosphere, and 95% humidity.
(§3) The compound cytotoxicity was determined by a WST-1 viability assay (Merck, USA). The amount of 5000 BLM and MRC-5 cells were seeded into individual wells of 96-well plates in 100 μL of cell cultivation media and maintained in an incubator for 16 h. After this period, the cells were treated with a concentration series (0–50 μM) of the tested compounds diluted in another 100 μL of cultivation media, which was added to the wells containing cells and incubated for 72 h. Then, BLM and MRC-5 cell viability was evaluated by WST-1 agent (5% v/v solution in phenol red-free DMEM media), i.e., the cell media was discarded and 100 μL of WST-1 solution was added. After 2 h incubation, the absorbance of formazan, derived from the WST-1 tetrazolium salt was determined spectrophotometrically at 450 nm (reference at 650 nm) by a UV-vis spectrophotometer (Bio-Rad, USA). Untreated cells, cells treated only with a vehicle, and cells treated with cytochalasin B (1) and D (2) served as controls. The measurement occurred in three independent repetitions each of which consisted of three technical replicates. The data were plotted as dose–response curves from which the half-maximal inhibitory concentrations (IC50) were calculated using AAT Bioquest.

Test [3] deals with human fibroblasts (MRC-5). In words: WST-1 viability assay, MRC-5 cells. Particulars: MRC5, 72 h treatment, WST-1 assay, 2D culture, 0–50 μM. The method, then: as §1, §2, §3
(Tetrazolium dyes change colour on reduction, which living cells bring about.)

For orientation: IC50 means the concentration needed to halve the response being measured. Lower therefore signals greater potency. The compound `COC(=O)[C@@]12C(=O)N[C@@H](Cc3ccccc3)[C@@H]1[C@H](C)C(C)=C[C@@H]2CCOCCc1ccc(OC)cc1` [Compound 17b, Methyl (1S,3aR,4S,7S,7aR)-1-benzyl-4-(2-(4-methoxyphenethoxy)ethyl)-6,7-dimethyl-3-oxo-1,2,3,4,7,7a-hexahydro-3aH-isoindole-3a-carboxylate] came in with a rel. spheroid area in test [1] of 1.14. In test [2], the IC50 was 35.3 ± 4.75 µM and the “selectivity index (SI)” value came to 1.1. 40.5 ± 4.65 µM corresponded to half-maximal inhibition in test [3] (IC50).

`COC(=O)[C@@]12C(=O)N[C@@H](Cc3ccccc3)[C@@H]1[C@H](C)C(C)=C[C@@H]2CCOCCc1cccc(F)c1` [Compound 17e, Methyl (1S,3aR,4S,7S,7aR)-1-benzyl-4-(2-(3-fluorophenethoxy)ethyl)-6,7-dimethyl-3-oxo-1,2,3,4,7,7a-hexahydro-3aH-isoindole-3a-carboxylate] registered a rel. spheroid area in test [1] of 0.96. For the same compound, the IC50 in test [2] is 25.9 ± 2.97 µM; in test [3] it was 31.9 ± 4.02 µM. Further, in test [2], the “selectivity index (SI)” value turned out to be 1.2.

In test [1], `COC(=O)[C@@]12C(=O)N[C@@H](Cc3ccccc3)[C@@H]1[C@H](C)[C@@](C)(O)[C@@H](O)[C@@H]2CCOCCc1ccc(Br)cc1` [Compound 23h, Methyl (1S,3aS,4R,5S,6R,7S,7aR)-1-benzyl-4-(2-(4-bromophenethoxy)ethyl)-5,6-dihydroxy-6,7-dimethyl-3-oxooctahydro-3aH-isoindole-3a-carboxylate] registered a rel. spheroid area of 0.93. Besides, in test [2], the IC50 was found to be 23 ± 2.17 µM and the “selectivity index (SI)” value is given as above 2.2. In test [3], this compound yielded an IC50 above 50 µM.

On to `COC(=O)[C@@]12C(=O)N[C@@H](Cc3ccccc3)[C@@H]1[C@H](C)[C@@]1(C)O[C@H]1[C@@H]2CCOCCc1ccc(OC)cc1` [Compound 22b, Methyl (1aS,2R,2aS,5S,5aR,6S,6aR)-5-benzyl-2-(2-(4-methoxyphenethoxy)ethyl)-6,6a-dimethyl-3-oxooctahydro-2aH-oxireno[2,3-f]isoindole-2a-carboxylate], for which the rel. spheroid area in test [1] amounted to 1.24. Moreover, in test [2], it took 20.6 ± 6.43 µM to reach half-maximal inhibition (IC50) and the “selectivity index (SI)” value is listed as above 2.4. In test [3], the IC50 was above 50 µM.

`COC(=O)[C@@]12C(=O)N[C@@H](Cc3ccccc3)[C@@H]1[C@H](C)C(C)=C[C@@H]2CCOCCc1ccc(F)cc1` [Compound 17d, Methyl (1S,3aR,4S,7S,7aR)-1-benzyl-4-(2-(4-fluorophenethoxy)ethyl)-6,7-dimethyl-3-oxo-1,2,3,4,7,7a-hexahydro-3aH-isoindole-3a-carboxylate]: in test [1], the rel. spheroid area amounted to 1.24. Also, in test [2], half-maximal inhibition (IC50) required 27.7 ± 2.45 µM and the “selectivity index (SI)” value is reported as 1.2. The compound also displayed an IC50 in test [3] of 33.5 ± 4.98 µM.

As for `COC(=O)[C@@]12C(=O)N[C@@H](Cc3ccccc3)[C@@H]1[C@H](C)[C@@]1(C)O[C@H]1[C@@H]2CCOCCc1ccccc1` [Compound 22a, Methyl (1aS,2R,2aS,5S,5aR,6S,6aR)-5-benzyl-6,6a-dimethyl-3-oxo-2-(2-phenethoxyethyl)octahydro-2aH-oxireno[2,3-f]isoindole-2a-carboxylate], the rel. spheroid area in test [1] amounted to 1.11. The IC50 in test [2] and in test [3] was above 50 µM each time.

On to `COC(=O)[C@@]12C(=O)N[C@@H](Cc3ccccc3)[C@@H]1[C@H](C)C(C)=C[C@@H]2CCOCCc1cccc(Br)c1` [Compound 17i, Methyl (1S,3aR,4S,7S,7aR)-1-benzyl-4-(2-(3-bromophenethoxy)ethyl)-6,7-dimethyl-3-oxo-1,2,3,4,7,7a-hexahydro-3aH-isoindole-3a-carboxylate], for which the rel. spheroid area in test [1] is given as 1.14. Further, in test [2], the midpoint of inhibition, the IC50, lay at 24.3 ± 1.82 µM and the “selectivity index (SI)” value was determined as 1.3. In test [3], this compound came in with an IC50 of 31.2 ± 6.95 µM.

The compound `COC(=O)[C@@]12C(=O)N[C@@H](Cc3ccccc3)[C@@H]1[C@H](C)C(C)=C[C@@H]2CCOCCc1ccc(Br)cc1` [Compound 17h, Methyl (1S,3aR,4S,7S,7aR)-1-benzyl-4-(2-(4-bromophenethoxy)ethyl)-6,7-dimethyl-3-oxo-1,2,3,4,7,7a-hexahydro-3aH-isoindole-3a-carboxylate] had a rel. spheroid area in test [1] of 1.05. Moreover, the IC50 in test [2] and in test [3] was above 50 µM each time.

The compound `COC(=O)[C@@]12C(=O)N[C@@H](Cc3ccccc3)[C@@H]1[C@H](C)C(C)=C[C@@H]2CCOCCc1ccccc1` [Compound 17a, Methyl (1S,3aR,4S,7S,7aR)-1-benzyl-6,7-dimethyl-3-oxo-4-(2-phenethoxyethyl)-1,2,3,4,7,7a-hexahydro-3aH-isoindole-3a-carboxylate] displayed a rel. spheroid area in test [1] of 1.21. For the same compound, in test [2], half-maximal inhibition (IC50) required 27.1 ± 1.24 µM and the “selectivity index (SI)” value worked out at 1.1. In addition, the IC50 in test [3] is 30.5 ± 0.38 µM.

`COC(=O)[C@@]12C(=O)N[C@@H](Cc3ccccc3)[C@@H]1[C@H](C)[C@@](C)(O)[C@@H](O)[C@@H]2CCOCCc1ccc(OC)cc1` [Compound 23b, Methyl (1S,3aS,4R,5S,6R,7S,7aR)-1-benzyl-5,6-dihydroxy-4-(2-(4-methoxyphenethoxy)ethyl)-6,7-dimethyl-3-oxooctahydro-3aH-isoindole-3a-carboxylate] yielded a rel. spheroid area in test [1] of 1.10. Also, the IC50 in test [2] and in test [3] was above 50 µM each time.

Regarding `C=C1[C@@H](C)[C@H]2[C@H](Cc3ccccc3)NC(=O)[C@@]2(C(=O)OC)[C@@H](CCOCCc2ccccc2)[C@@H]1OC(C)=O` [Compound 27, Methyl (1S,3aS,4R,5S,7S,7aR)-5-acetoxy-1-benzyl-7-methyl-6-methylene-3-oxo-4-(2-phenethoxyethyl)octahydro-3aH-isoindole-3a-carboxylate], the “migrastatic activity (cell migration, in words)” value in test [1] (10 μM, BLM spheroid invasion) was “inactive”. The rel. spheroid area in test [1] is listed as 0.89. For the same compound, the IC50 in test [2] and in test [3] was above 50 µM in each case.

Consider `COC(=O)[C@@]12C(=O)N[C@@H](Cc3ccccc3)[C@@H]1[C@H](C)[C@@]1(C)O[C@H]1[C@@H]2CCOCCc1ccc(Br)cc1` [Compound 22h, Methyl (1aS,2R,2aS,5S,5aR,6S,6aR)-5-benzyl-2-(2-(4-bromophenethoxy)ethyl)-6,6a-dimethyl-3-oxooctahydro-2aH-oxireno[2,3-f]isoindole-2a-carboxylate], for which the rel. spheroid area in test [1] came out at 0.98. Moreover, the IC50 in test [2] and in test [3] was above 50 µM in each case.

For the compound `CC1=C[C@H](CCOCCc2ccccc2)[C@]2(C(=O)O)C(=O)N[C@@H](Cc3ccccc3)[C@@H]2[C@@H]1C` [Compound 29, (1S,3aR,4S,7S,7aR)-1-Benzyl-6,7-dimethyl-3-oxo-4-(2-phenethoxyethyl)-1,2,3,4,7,7a-hexahydro-3aH-isoindole-3a-carboxylic acid], in test [1], the rel. spheroid area was 1.05. Besides, the IC50 in test [2] and in test [3] was above 50 µM throughout.

As to `COC(=O)[C@@]12C(=O)N[C@@H](Cc3ccccc3)[C@@H]1[C@H](C)[C@@](C)(Cl)[C@H](O)[C@@H]2CCOCCc1ccccc1` [Compound 26, Methyl (1S,3aS,4R,5R,6R,7S,7aR)-1-benzyl-6-chloro-5-hydroxy-6,7-dimethyl-3-oxo-4-(2-phenethoxyethyl)octahydro-3aH-isoindole-3a-carboxylate], the rel. spheroid area in test [1] amounted to 0.88. The IC50 in test [2] and in test [3] was above 50 µM in each case.

The values above are taken from publication PMC10809383, “Synthesis and migrastatic activity of cytochalasin analogues lacking a macrocyclic moiety” (RSC Medicinal Chemistry, 2023).
